Patent publication US10857228B2, “Adjuvant for vaccines, vaccine, and immunity induction method” (The University of Tokyo, priority 2015, dated 2020)

B1: granulocyte monocyte colony stimulating factor (protein, UniProt P01587 18-141, looked up)
Granulocyte-macrophage …: APTRSPITVTRPWKHVEAIKEALNLLDDMPVTLNEEVEVVSNEFSFKKLTCVQTRLKIFEQGLRGNFTKLKGALNMTASYYQTYCPPTPETDCETQVTTYADFIDSLKTFLTDIPFECKKPGQK
notes: inducer of expression of Raldh2; added with CpG ODN to stimulate spleen cDCs

Legend:
[1] = tested on: CD57BL/6 mice; experiment: IgA induction by spleen cDCs stimulated with OVA, CpG ODN and GM-CSF, intraperitoneally administered to mice; assay type: in vivo; conditions: spleen cDCs stimulated 24 hours with OVA 100 μg/ml and adjuvant, given i.p. Day 0 and Day 14; oral OVA Day 21 to 25; ELISA Day 32
Procedure: Spleen cDCs were stimulated for 24 hours using ovalbumin (OVA; 100 μg/ml) as an antigen and CpG ODN 1668 (1 μg/ml) only or the combination of CpG ODN and GM-CSF (10 ng/ml) as an adjuvant.
Here, the fractioning of murine small intestine mucosa lamina propria cells with the dendritic cell marker CD11c and the macrophage marker CD11b produces the 4 groups: R1 (dendritic cells) (CD11c high CD11b low), R2 (dendritic cells) (CD11c high CD11b high), R3 (macrophages) (CD11c int CD11b int), R4 (acidophiles) (CD11c int CD11b high). The R2 dendritic cells specifically express Raldh2 and induce the Th17 response and the IgA production (Non-Patent Literature 1). Therefore, the R2 dendritic cells were stimulated with OVA (100 μg/ml) and CpG ODN 1668 (1 μg/ml) as positive control. Spleen cDCs were stimulated with OVA (100 μg/ml) and CpG ODN 1668 (1 μg/ml) with or without GM-CSF (10 ng/ml).
On Day 0 and Day 14 after the stimulation, dendritic cells (each 5×10^4 cells) (or PBS) which took up the antigen were intraperitoneally administered into CD57BL/6 mice. On Day 21 to Day 25, 1 mg/mouse of OVA was orally administered daily and, on Day 32, total of antigen-specific IpG in serum and antigen-specific IgA in feces were measured by ELISA.

[2] = tested on: pulmonary mucosa lamina propria cells; experiment: Cytokine production of pulmonary mucosa lamina propria cells after intranasal booster; assay type: in vivo, mice; conditions: 7 days after intranasal OVA, cultured 4 days with OVA 100 μg/ml
Procedure: IFA, IFA+OVA+CpG ODN, IFA+OVA+curdlan, and IFA+OVA+CpG ODN+curdlan were administered to mice by intramuscular injection, respectively. On Day 35, 1 μg/mouse of OVA was administered by intranasal administration to perform booster immunization, and, 7 days later antigen-specific total IgG in the serum and IgA in the bronchoalveolar lavage fluid were measured by ELISA.
In the experiment of 9, 7 days after the intranasal administration of OVA, pulmonary mucosa lamina propria cells were extracted from the mice and cultured in the presence of the antigen (OVA 100 μg/ml) for 4 days and IFN-γ, IL-4, and IL-17 production was measured by ELISA.

[3] = tested on: Dectin-1; experiment: Expression of Dectin-1 in spleen-derived dendritic cells with CpG ODN stimulation; assay type: cell-based; conditions: spleen-derived dendritic cells stimulated with CpG ODN
Procedure: Next, the expression of Dectin-1, which is a receptor that recognizes β-1,3-glucan, in dendritic cells was measured. The summary and the result of the experiment are illustrated in FIG. 12. As illustrated in the left panel in the figure, it was confirmed that, in spleen-derived dendritic cells, the expression of Dectin-1 is not high, but the expression of Dectin-1 increases more than 3 times by stimulating the cells with CpG ODN. Dectin-1 is known to induce the Th17 response. These indicate the mechanism of the present invention in which the addition of both of CpG ODN and β-1,3-glucan to the adjuvant makes dendritic cells easy to receive the stimulation with β-1,3-glucan and induces the Th17 response.

[4] = tested on: Raldh2; experiment: Induction of Raldh2 mRNA expression in spleen cDCs (RT-PCR); assay type: cell-based; conditions: spleen cDCs stimulated 24 hours
Procedure: Next, zymosan (component of yeast cell wall of Saccharomyces cerevisiae; 25 ng/ml) and curdlan ((β-1,3-glucan derived from Agrobacterium spp., Alcaligenes spp.; 25 ng/ml) were used as glucan-based compound. Spleen cDCs were stimulated with these substances for 24 hours and, after collecting RNA, the expression of Raldh2 mRNA was measured by RT-PCR.

Molecule	antigen-specific IgA in feces [1]	IFN-γ production [2]	increase of expression of Dectin-1 [3]	expression of Raldh2 mRNA [4]
CpG ODN 1668	induced little production of IgA	induced	more than 3 times	–
curdlan	–	induced	–	induced the expression of Raldh2
B1	induced IgA production more than the R2 dendritic cells	–	–	induced the expression of Raldh2
